Laboratory results reported in US12291519B2, “2-hydroxycycloalkane-1-carbamoyl” (Idorsia Pharmaceuticals Ltd, priority 2019, dated 2025).

Assays:
human Gal-1 (hGal-1) = assay: Competitive binding assay: biotinylated hGal-1 binding to microplate-adsorbed asialofetuin (ASF); details: Activity on hGal-1; binding of biotinylated hGal-1 to ASF-coated plates; mean values
Outline: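 Inhibition measured as loss of hGal-1 (biotinylated, 300–1000 ng/mL, wild type or Cys→Ser mutant) binding to adsorbed asialofetuin over 3 h at 4 °C. Bound lectin detected with streptavidin-HRP and ABTS (410 nm, 30–45 min); IC50 values averaged across repeat measurements.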

human Gal-3 (hGal-3) = human Gal-3 (hGal-3) (Homo sapiens (Human), UniProt P17931); assay: Competitive binding assay: biotinylated hGal-3 binding to microplate-adsorbed asialofetuin (ASF); details: Activity on hGal-3; binding of biotinylated hGal-3 to ASF-coated plates; mean values
human Gal-3 (hGal-3), sequence (P17931 whole entry): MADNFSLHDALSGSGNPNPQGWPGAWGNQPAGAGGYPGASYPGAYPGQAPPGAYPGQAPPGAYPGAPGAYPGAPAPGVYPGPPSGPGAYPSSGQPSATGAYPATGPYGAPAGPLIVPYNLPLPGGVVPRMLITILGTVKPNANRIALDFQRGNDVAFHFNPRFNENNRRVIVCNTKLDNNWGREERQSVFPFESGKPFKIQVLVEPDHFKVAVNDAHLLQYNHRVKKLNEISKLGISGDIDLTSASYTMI
Outline: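 Serially diluted compounds competed with biotinylated human Gal-3 for binding to plate-adsorbed asialofetuin over 3 h at 4 °C. Bound Gal-3 was detected with streptavidin-peroxidase (80 ng/mL, 1 h, 4 °C) and ABTS substrate. IC50 values are means of several measurements.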

human Gal-1 (hGal-1), sequence (P09382 2-135 limits assumed): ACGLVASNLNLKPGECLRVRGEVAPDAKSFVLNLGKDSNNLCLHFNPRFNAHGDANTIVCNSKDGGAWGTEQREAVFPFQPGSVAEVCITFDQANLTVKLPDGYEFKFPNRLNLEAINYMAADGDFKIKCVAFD

IC50 (human Gal-1 (hGal-1)) [nM]	IC50 (human Gal-3 (hGal-3)) [nM]	Compound
157	13	CO[C@@H]1[C@@H](n2cc(-c3cc(F)c(F)c(F)c3)nn2)[C@@H](O)[C@@H](CO)O[C@H]1C(=O)N(c1cc(Cl)cc(C#N)c1)[C@H]1CCCC[C@@H]1O [Example 88, (2R,3R,4S,5R,6R)-N-(3-chloro-5-cyanophenyl)-5-hydroxy-N-((1S,2S)-2-hydroxycyclohexyl)-6-(hydroxymethyl)-3-methoxy-4-(4-(3,4,5-trifluorophenyl)-1H-1,2,3-triazol-1-yl)tetrahydro-2H-pyran-2-carboxamide]
618	29	CO[C@@H]1[C@@H](n2cc(-c3ccc(C#N)c(F)c3)nn2)[C@@H](O)[C@@H](CO)O[C@H]1C(=O)N(c1cc(Cl)cc(C#N)c1)[C@H]1CCCC[C@@H]1O [Example 181, (2R,3R,4S,5R,6R)-N-(3-chloro-5-cyanophenyl)-4-(4-(4-cyano-3-fluorophenyl)-1H-1,2,3-triazol-1-yl)-5-hydroxy-N-((1S,2S)-2-hydroxycyclohexyl)-6-(hydroxymethyl)-3-methoxytetrahydro-2H-pyran-2-carboxamide]
1240	64	CO[C@@H]1[C@@H](n2cc(-c3cc(F)c(Cl)c(Cl)c3)nn2)[C@@H](O)[C@@H](CO)O[C@H]1C(=O)N(c1ccc(F)c(F)c1)[C@H]1CCCC[C@@H]1O [Example 167, (2R,3R,4S,5R,6R)-4-(4-(3,4-dichloro-5-fluorophenyl)-1H-1,2,3-triazol-1-yl)-N-(3,4-difluorophenyl)-5-hydroxy-N-((1S,2S)-2-hydroxycyclohexyl)-6-(hydroxymethyl)-3-methoxytetrahydro-2H-pyran-2-carboxamide]
935	43	CO[C@@H]1[C@@H](n2cc(-c3cc(F)cc(Cl)c3)nn2)[C@@H](O)[C@@H](CO)O[C@H]1C(=O)N(c1cccc(Br)c1)[C@H]1CCCC[C@@H]1O [Example 138, (2R,3R,4S,5R,6R)-N-(3-bromophenyl)-4-(4-(3-chloro-5-fluorophenyl)-1H-1,2,3-triazol-1-yl)-5-hydroxy-N-((1S,2S)-2-hydroxycyclohexyl)-6-(hydroxymethyl)-3-methoxytetrahydro-2H-pyran-2-carboxamide]
238	12	CO[C@@H]1[C@@H](n2cc(-c3ccc(C)c(F)c3F)nn2)[C@@H](O)[C@@H](CO)O[C@H]1C(=O)N(c1cc(Cl)cc(C#N)c1)[C@H]1CCCC[C@@H]1O [Example 171, (2R,3R,4S,5R,6R)-N-(3-chloro-5-cyanophenyl)-4-(4-(2,3-difluoro-4-methylphenyl)-1H-1,2,3-triazol-1-yl)-5-hydroxy-N-((1S,2S)-2-hydroxycyclohexyl)-6-(hydroxymethyl)-3-methoxytetrahydro-2H-pyran-2-carboxamide]
422	21	CO[C@@H]1[C@@H](n2cc(-c3cc(F)c(F)c(F)c3)nn2)[C@@H](O)[C@@H](CO)O[C@H]1C(=O)N(c1cc(F)cc(Br)c1)[C@H]1CCCC[C@@H]1O [Example 120, (2R,3R,4S,5R,6R)-N-(3-bromo-5-fluorophenyl)-5-hydroxy-N-((1S,2S)-2-hydroxycyclohexyl)-6-(hydroxymethyl)-3-methoxy-4-(4-(3,4,5-trifluorophenyl)-1H-1,2,3-triazol-1-yl)tetrahydro-2H-pyran-2-carboxamide]
158	8	CO[C@@H]1[C@@H](n2cc(-c3ccc(C)c(F)c3)nn2)[C@@H](O)[C@@H](CO)O[C@H]1C(=O)N(c1cc(Br)cc(C#N)c1)[C@H]1CCCC[C@@H]1O [Example 200, (2R,3R,4S,5R,6R)-N-(3-bromo-5-cyanophenyl)-4-(4-(3-fluoro-4-methylphenyl)-1H-1,2,3-triazol-1-yl)-5-hydroxy-N-((1S,2S)-2-hydroxycyclohexyl)-6-(hydroxymethyl)-3-methoxytetrahydro-2H-pyran-2-carboxamide]
318	24	CO[C@@H]1[C@@H](n2cc(-c3cc(F)cc(Cl)c3)nn2)[C@@H](O)[C@@H](CO)O[C@H]1C(=O)N(c1cc(Br)cc(C#N)c1)[C@H]1CCCC[C@@H]1O [Example 137, (2R,3R,4S,5R,6R)-N-(3-bromo-5-cyanophenyl)-4-(4-(3-chloro-5-fluorophenyl)-1H-1,2,3-triazol-1-yl)-5-hydroxy-N-((1S,2S)-2-hydroxycyclohexyl)-6-(hydroxymethyl)-3-methoxytetrahydro-2H-pyran-2-carboxamide]
238	25	CO[C@@H]1[C@@H](n2cc(-c3cc(F)c(F)c(F)c3)nn2)[C@@H](O)[C@@H](CO)O[C@H]1C(=O)N(c1cccc(Br)c1)[C@H]1CCCC[C@@H]1O [Example 103, (2R,3R,4S,5R,6R)-N-(3-bromophenyl)-5-hydroxy-N-((1S,2S)-2-hydroxycyclohexyl)-6-(hydroxymethyl)-3-methoxy-4-(4-(3,4,5-trifluorophenyl)-1H-1,2,3-triazol-1-yl)tetrahydro-2H-pyran-2-carboxamide]
338	159	CO[C@@H]1[C@@H](n2cc(-c3cc(F)c(F)c(F)c3)nn2)[C@@H](O)[C@@H](CO)O[C@H]1C(=O)N(Cc1cccnc1C(F)(F)F)[C@H]1CCCC[C@@H]1O [Example 26, (2R,3R,4S,5R,6R)-5-hydroxy-N-((1S,2S)-2-hydroxycyclohexyl)-6-(hydroxymethyl)-3-methoxy-N-((2-(trifluoromethyl)pyridin-3-yl)methyl)-4-(4-(3,4,5-trifluorophenyl)-1H-1,2,3-triazol-1-yl)tetrahydro-2H-pyran-2-carboxamide]
3970	165	COc1ncnc(OC)c1CN(C(=O)[C@@H]1O[C@H](CO)[C@H](O)[C@H](n2cc(-c3cc(F)c(F)c(F)c3)nn2)[C@H]1O)[C@H]1CCCC[C@@H]1O [Example 28, (2R,3R,4S,5R,6R)-N-((4,6-dimethoxypyrimidin-5-yl)methyl)-3,5-dihydroxy-N-((1S,2S)-2-hydroxycyclohexyl)-6-(hydroxymethyl)-4-(4-(3,4,5-trifluorophenyl)-1H-1,2,3-triazol-1-yl)tetrahydro-2H-pyran-2-carboxamide]
1040	151	CO[C@@H]1[C@@H](n2cc(-c3cc(F)c(F)c(F)c3)nn2)[C@@H](O)[C@@H](CO)O[C@H]1C(=O)N(Cc1cc(C)nn1C)[C@H]1CCCC[C@@H]1O [Example 47, (2R,3R,4S,5R,6R)-N-((1,3-dimethyl-1H-pyrazol-5-yl)methyl)-5-hydroxy-N-((1S,2S)-2-hydroxycyclohexyl)-6-(hydroxymethyl)-3-methoxy-4-(4-(3,4,5-trifluorophenyl)-1H-1,2,3-triazol-1-yl)tetrahydro-2H-pyran-2-carboxamide]
1240	43	CO[C@@H]1[C@@H](n2cc(-c3cc(F)c(F)c(F)c3)nn2)[C@@H](O)[C@@H](CO)O[C@H]1C(=O)N(c1ccc2ccsc2c1)[C@H]1CCCC[C@@H]1O [Example 102, (2R,3R,4S,5R,6R)-N-(benzo[b]thiophen-6-yl)-5-hydroxy-N-((1S,2S)-2-hydroxycyclohexyl)-6-(hydroxymethyl)-3-methoxy-4-(4-(3,4,5-trifluorophenyl)-1H-1,2,3-triazol-1-yl)tetrahydro-2H-pyran-2-carboxamide]
